Experimental data published in PMC10951960, “CGP7930 - An allosteric modulator of GABABRs, GABAARs and inwardly-rectifying potassium channels” (Neuropharmacology, 2023).

Target: T1, Kir3.1/3.2 channels (GIRK) (Homo sapiens, UniProt P48051+P48549)
T1 construct: expressed in transfected cells
T1 sequence (P48549 1-501): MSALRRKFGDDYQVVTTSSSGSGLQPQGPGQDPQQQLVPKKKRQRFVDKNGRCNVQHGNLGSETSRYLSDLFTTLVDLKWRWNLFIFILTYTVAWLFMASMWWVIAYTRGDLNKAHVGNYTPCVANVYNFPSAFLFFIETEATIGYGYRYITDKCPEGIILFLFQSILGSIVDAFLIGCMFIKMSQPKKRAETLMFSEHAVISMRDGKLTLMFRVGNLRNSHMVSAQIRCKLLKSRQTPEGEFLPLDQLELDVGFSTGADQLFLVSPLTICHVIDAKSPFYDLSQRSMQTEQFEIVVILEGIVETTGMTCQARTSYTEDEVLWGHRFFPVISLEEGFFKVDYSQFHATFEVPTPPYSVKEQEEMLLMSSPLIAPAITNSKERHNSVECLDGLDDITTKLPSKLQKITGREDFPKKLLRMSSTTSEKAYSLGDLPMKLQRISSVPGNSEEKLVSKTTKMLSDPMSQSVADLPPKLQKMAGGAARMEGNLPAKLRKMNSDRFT
T1 sequence (P48051 1-423): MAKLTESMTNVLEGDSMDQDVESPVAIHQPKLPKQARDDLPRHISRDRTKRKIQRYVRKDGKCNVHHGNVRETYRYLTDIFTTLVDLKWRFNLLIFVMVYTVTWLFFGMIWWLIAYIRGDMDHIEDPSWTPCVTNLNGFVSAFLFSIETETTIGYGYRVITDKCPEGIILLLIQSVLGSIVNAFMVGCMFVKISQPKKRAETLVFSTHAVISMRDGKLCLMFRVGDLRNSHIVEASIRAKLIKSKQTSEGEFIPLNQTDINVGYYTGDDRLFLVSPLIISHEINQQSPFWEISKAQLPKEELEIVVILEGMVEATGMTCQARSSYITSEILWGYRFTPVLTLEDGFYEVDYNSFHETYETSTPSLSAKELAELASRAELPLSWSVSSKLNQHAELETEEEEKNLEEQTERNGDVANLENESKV
Experiment: block of basally-active K+ currents in GIRK cells not expressing GABABRs, high K+ Krebs
Format: cell-based
Experimental: HEK-293T cells were maintained in Dulbecco's modified Eagle's medium containing 10% (v/v) fetal calf serum (FCS), 100 U/ml penicillin-G, 100 μg/ml streptomycin in 95% air/5% CO2 at 37 °C. All cell culture reagents were acquired from ThermoFisher unless otherwise stated. Cells were plated on 22 mm glass coverslips (VWR, UK), coated with poly-L-lysine (Sigma) and transfected using a calcium phosphate method with cDNAs for eGFP, α, β, γ or δ, in a 1:1:1:1 ratio ([Hannan et al., 2020]) applied 1–2 h after cell plating. HEK-293 cells stably expressing Kir3.1/3.2 channels ([Leaney et al., 2000]) were grown in a selection media containing G418 (0.5 mg/ml) and Zeocin (0.4 mg/ml) and passaged, and plated, as for the HEK-293T cells above. These cells are referred to as GIRK cells throughout the text and were transiently transfected with cDNAs for eGFP, GABAB R1a and R2 in a 1:1:5 ratio applied 1–2 h after cell plating.
GABA-activated currents were recorded 24 h after transfection of HEK-293T or GIRK cells. Spontaneous inhibitory postsynaptic currents (sIPSCs) were recorded from cultured hippocampal neurons at 12–17 days in vitro (DIV). Cells were superfused with a saline solution containing (mM): 140 NaCl, 4.7 KCl, 2.52 CaCl2, 1.2 MgCl2, 11 glucose, and 5 HEPES; pH 7.4. sIPSCs from hippocampal culture neurons were recorded in the presence of 2 mM kynurenic acid to block excitatory neurotransmission. […] GABABR-activated K^+ currents in cultured neurons were recorded in the additional presence of 2 mM kynurenic acid and 20 μM picrotoxin.
Borosilicate glass electrodes (3–5 MΩ) were filled with a K^+-based internal solution for recording GIRK currents containing (mM): 120 KCl, 2 MgCl2, 11 EGTA, 30 KOH, 10 HEPES, 1 CaCl2, 1 GTP, 2 ATP, 14 creatine phosphate, pH 7.0. GABAAR currents and sIPSCs were recorded with a Cs-based internal solution containing (mM): 120 CsCl, 1 MgCl2, 11 EGTA, 30 KOH, 10 HEPES, 1 CaCl2, and 2 K2ATP; pH 7.2. […]

effect on GIRK-mediated inwardly-rectifying currents (I–V, −20 to −120 mV) (10 or 100 μM): inhibition
threshold for whole-cell outward currents (GIRK cells without GABABRs, −60 mV, high K+): 0.3 µM
effect on additional outward rectification (depolarising steps) (GIRK cells, I–V): inhibited
Structure (SMILES): CC(C)(CO)Cc1cc(C(C)(C)C)c(O)c(C(C)(C)C)c1 [CGP7930, 3-(3′,5′-Di-tert-butyl-4′-hydroxy) phenyl-2,2-dimethylpropanol]
